{
  "source": "paper PMC3397391",
  "about": "(Chemistry & biology, 2012)",
  "system": "cultured P. falciparum",
  "assay": "Cell culture inhibition assay, cultured parasites",
  "assay_type": "cell-based, Plasmodium falciparum",
  "conditions": "in the presence of hypoxanthine; data not shown",
  "data": [
    {"smiles": "O=c1[nH]cnc2c([C@@H]3N[C@H](COP(=O)(O)O)[C@@H](O)[C@H]3O)c[nH]c12", "note": "[ImmHP, Immucillin-H 5′-phosphate]", "values": [
      {"measurement": "activity against cultured P. falciparum", "result": "lacks activity"}
    ]}
  ]
}
